In US9556181B2, “Substituted pyrazolopyrimidinylamino-indazoles” (BAYER PHARMA AKTIENGESELLSCHAFT, priority 2013, dated 2017):

target: human full-length MKNK1 (Homo sapiens (Human), UniProt Q9BUB5, T344D); test: MKNK1 kinase high ATP assay (TR-FRET); format: biochemical; details: high ATP (2 mM final), 15 min preincubation with enzyme
Method: MKNK1 Kinase High ATP Assay
MKNK1-inhibitory activity at high ATP of compounds of the present invention after their preincubation with MKNK1 was quantified employing the TR-FRET-based MKNK1 high ATP assay as described in the following paragraphs.
A recombinant fusion protein of Glutathione-S-Transferase (GST, N-terminally) and human full-length MKNK1 (amino acids 1-424 and T344D of accession number BAA 19885.1), expressed in insect cells using baculovirus expression system and purified via glutathione sepharose affinity chromatography, was purchased from Carna Biosciences (product no 02-145) and used as enzyme. As substrate for the kinase reaction the biotinylated peptide biotin-Ahx-IKKRKLTRRKSLKG (C-terminus in amide form) was used, which can be purchased e.g. from the company Biosyntan (Berlin-Buch, Germany).
For the assay 50 nL of a 100 fold concentrated solution of the test compound in DMSO was pipetted into a black low volume 384 well microtiter plate (Greiner Bio-One, Frickenhausen, Germany), 2 μL of a solution of MKNK1 in aqueous assay buffer [50 mM HEPES pH 7.5, 5 mM MgCl2, 1.0 mM dithiothreitol, 0.005% (v/v) Nonidet-P40 (Sigma)] was added and the mixture was incubated for 15 min at 22° C. to allow pre-binding of the test compounds to the enzyme before the start of the kinase reaction. Then the kinase reaction was started by the addition of 3 μL of a solution of adenosine-tri-phosphate (ATP, 3.3 mM=>final conc. in the 5 μL assay volume is 2 mM) and substrate (0.1 μM=>final conc. in the 5 μL assay volume is 0.06 μM) in assay buffer and the resulting mixture was incubated for a reaction time of 30 min at 22° C. The concentration of MKNK1 was adjusted depending of the activity of the enzyme lot and was chosen appropriate to have the assay in the linear range, typical concentrations were in the range of 0.003 μg/mL. The reaction was stopped by the addition of 5 μL of a solution of TR-FRET detection reagents (5 nM streptavidine-XL665 [Cisbio Bioassays, Codolet, France] and 1 nM anti-ribosomal protein S6 (pSer236)-antibody from Invitrogen [#44921G] and 1 nM LANCE EU-W1024 labeled ProteinG [Perkin-Elmer, product no. AD0071]) in an aqueous EDTA-solution (100 mM EDTA, 0.1% (w/v) bovine serum albumin in 50 mM HEPES pH 7.5).
The resulting mixture was incubated for 1 h at 22° C. to allow the formation of complex between the phosphorylated biotinylated peptide and the detection reagents. Subsequently the amount of phosphorylated substrate was evaluated by measurement of the resonance energy transfer from the Eu-chelate to the streptavidine-XL. Therefore, the fluorescence emissions at 620 nm and 665 nm after excitation at 350 nm were measured in a TR-FRET reader, e.g. a Rubystar (BMG Labtechnologies, Offenburg, Germany) or a Viewlux (Perkin-Elmer). The ratio of the emissions at 665 nm and at […] was taken as the measure for the amount of phosphorylated substrate. The data were normalised (enzyme reaction without inhibitor=0% inhibition, all other assay components but no enzyme=100% inhibition).

Chain of human full-length MKNK1 (Q9BUB5 other isoform, or with tags, fused parts or gaps T344D): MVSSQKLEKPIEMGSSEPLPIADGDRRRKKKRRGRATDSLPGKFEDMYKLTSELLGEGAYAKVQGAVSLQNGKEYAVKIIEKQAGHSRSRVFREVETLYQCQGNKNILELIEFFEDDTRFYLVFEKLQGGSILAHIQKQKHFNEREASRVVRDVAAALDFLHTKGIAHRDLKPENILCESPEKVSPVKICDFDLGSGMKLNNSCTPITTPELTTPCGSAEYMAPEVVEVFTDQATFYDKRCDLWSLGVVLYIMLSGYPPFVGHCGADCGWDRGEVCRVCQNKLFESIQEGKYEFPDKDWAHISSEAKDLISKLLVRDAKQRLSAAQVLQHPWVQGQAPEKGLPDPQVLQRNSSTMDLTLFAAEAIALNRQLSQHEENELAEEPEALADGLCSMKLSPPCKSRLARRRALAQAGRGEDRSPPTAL

Compound | IC50
c1nc(Nc2ccc3[nH]ncc3c2)c2cn[nH]c2n1 [Example 1, N-(1H-Indazol-5-yl)-1H-pyrazolo[3,4-d]pyrimidin-4-amine] | 117 nM
CC(C)Oc1cc2[nH]ncc2cc1Nc1ncnc2[nH]ncc12 [Example 3, N-[6-(Propan-2-yloxy)-1H-indazol-5-yl]-1H-pyrazolo[3,4-d]pyrimidin-4-amine] | 531 nM
COc1cc2[nH]ncc2cc1Nc1ncnc2[nH]nc(-c3cccnc3)c12 [Example 10, N-(6-Methoxy-1H-indazol-5-yl)-3-(pyridin-3-yl)-1H-pyrazolo[3,4-d]pyrimidin-4-amine] | 6 nM
c1cncc(-c2n[nH]c3ncnc(Nc4ccc5[nH]ncc5c4)c23)c1 [Example 9, N-(1H-Indazol-5-yl)-3-(pyridin-3-yl)-1H-pyrazolo[3,4-d]pyrimidin-4-amine] | 8 nM
COc1cc2[nH]ncc2cc1Nc1ncnc2[nH]nc(-c3ccccc3)c12 [Example 7, N-(6-methoxy-1H-indazol-5-yl)-3-phenyl-1H-pyrazolo[3,4-d]pyrimidin-4-amine] | 3 nM
CC(C)Oc1cc2[nH]ncc2cc1Nc1ncnc2[nH]nc(Br)c12 [Example 17, 3-Bromo-N-(6-isopropoxy-1H-indazol-5-yl)-1H-pyrazolo[3,4-d]pyrimidin-4-amine] | 1 nM
Fc1cc2[nH]ncc2cc1Nc1ncnc2[nH]nc(-c3cccnc3)c12 [Example 11, N-(6-fluoro-1H-indazol-5-yl)-3-(pyridin-3-yl)-1H-pyrazolo[3,4-d]pyrimidin-4-amine] | 8 nM
CC(C)Oc1cc2[nH]ncc2cc1Nc1ncnc2[nH]nc(-c3ccc(F)cc3)c12 [Example 19, 3-(4-Fluorophenyl)-N-(6-isopropoxy-1H-indazol-5-yl)-1H-pyrazolo[3,4-d]pyrimidin-4-amine] | 26 nM
Fc1ccc(-c2n[nH]c3ncnc(Nc4ccc5[nH]ncc5c4)c23)cc1 [Example 12, 3-(4-Fluorophenyl)-N-(1H-indazol-5-yl)-1H-pyrazolo[3,4-d]pyrimidin-4-amine] | 12 nM
CC(C)Oc1cc2[nH]ncc2cc1Nc1ncnc2[nH]nc(-c3ccncc3)c12 [Example 21, N-(6-Isopropoxy-1H-indazol-5-yl)-3-(pyridin-4-yl)-1H-pyrazolo[3,4-d]pyrimidin-4-amine] | 27 nM
CC(C)Oc1cc2[nH]ncc2cc1Nc1ncnc2[nH]nc(-c3ccccc3)c12 [Example 18, N-(6-Isopropoxy-1H-indazol-5-yl)-3-phenyl-1H-pyrazolo[3,4-d]pyrimidin-4-amine] | 19 nM
Fc1cc2[nH]ncc2cc1Nc1ncnc2[nH]nc(Br)c12 [Example 5, 3-Bromo-N-(6-fluoro-1H-indazol-5-yl)-1H-pyrazolo[3,4-d]pyrimidin-4-amine] | 12 nM
COc1cc2[nH]ncc2cc1Nc1ncnc2[nH]nc(-c3ccc(F)cc3)c12 [Example 13, 3-(4-Fluorophenyl)-N-(6-methoxy-1H-indazol-5-yl)-1H-pyrazolo[3,4-d]pyrimidin-4-amine] | 2 nM
Fc1cc2[nH]ncc2cc1Nc1ncnc2[nH]nc(-c3ccccc3)c12 [Example 8, N-(6-fluoro-1H-indazol-5-yl)-3-phenyl-1H-pyrazolo[3,4-d]pyrimidin-4-amine] | 15 nM
CC(C)Oc1cc2[nH]ncc2cc1Nc1ncnc2[nH]nc(-c3cccnc3)c12 [Example 20, N-(6-Isopropoxy-1H-indazol-5-yl)-3-(pyridin-3-yl)-1H-pyrazolo[3,4-d]pyrimidin-4-amine] | 63 nM
Fc1ccc(-c2n[nH]c3ncnc(Nc4cc5cn[nH]c5cc4F)c23)cc1 [Example 14, N-(6-Fluoro-1H-indazol-5-yl)-3-(4-fluorophenyl)-1H-pyrazolo[3,4-d]pyrimidin-4-amine] | 12 nM
Brc1n[nH]c2ncnc(Nc3ccc4[nH]ncc4c3)c12 [Example 6, 3-Bromo-N-(1H-indazol-5-yl)-1H-pyrazolo[3,4-d]pyrimidin-4-amine] | 14 nM
COc1cc2[nH]ncc2cc1Nc1ncnc2[nH]nc(Br)c12 [Example 4, 3-Bromo-N-(6-methoxy-1H-indazol-5-yl)-1H-pyrazolo[3,4-d]pyrimidin-4-amine] | 1 nM
c1ccc(-c2n[nH]c3ncnc(Nc4ccc5[nH]ncc5c4)c23)cc1 [Example 15, N-(1H-Indazol-5-yl)-3-phenyl-1H-pyrazolo[3,4-d]pyrimidin-4-amine] | 26 nM
COc1cc2[nH]ncc2cc1Nc1ncnc2[nH]nc(-c3ccncc3)c12 [Example 16, N-(6-Methoxy-1H-indazol-5-yl)-3-(pyridin-4-yl)-1H-pyrazolo[3,4-d]pyrimidin-4-amine] | 2 nM
